Test results taken from US12312579B2, “Method for culturing H. pylori for future testing” (BioSherpa, LLC, priority 2019, dated 2025).
In brackets after ≈: the same amount, converted by molar mass.

Tests used:
Klebsiella oxytoca = assay: Antibiotic sensitivity (MIC) of Klebsiella oxytoca isolated from sputum, Example 2; type: cell-based; conditions: for Interps / MIC: Klebsiella oxytoca isolate from experimental sputum sample
S. aureus [1] = assay: Antibiotic sensitivity (MIC) of 5/14 sputum culture isolate, Example 4; type: cell-based, Staphylococcus aureus; conditions: 5/14 Sputum cx
Description: (§1) The original culture taken on 5/5 (finalized on 5/7) was identical to a subsequent culture taken on 5/14 that only grew MRSA.

Staphylococcus aureus = assay: Antibiotic sensitivity (MIC) of original blood culture isolate, Example 3; type: cell-based; conditions: Rare Colonies Staphylococcus aureus
Description: (§2) While not being bound to a specific theory, the native bone may sequester sessile infection in biofilms, especially in relatively devitalized bone associated with vasculopathy. Incubation in mucolytic allows for breakdown of the biofilm and the glycerol broth allows for a nutritive environment to coax these recalcitrant organisms into a cultivable state.

S. aureus [2] = assay: Antibiotic sensitivity (MIC) of S. aureus grown from bone incubated in the transport system, Example 3; type: cell-based, Staphylococcus aureus; conditions: for MIC: unit assumed
Description: as §2, with “FIG. 5L illustrates another view of the cultures. […] The sample was incubated for 24 hours at 37 degrees Celsius. […] While” for “While”

S. Pneumoniae = assay: Antibiotic sensitivity pattern (MIC) of S. pneumoniae isolated from sputum, Example 1; type: cell-based, Streptococcus pneumoniae; conditions: for Interpretation / MIC: S. pneumoniae isolate from experimental sputum sample; for MIC: unit assumed
Description: FIG. 5E illustrates the mucoid alpha Streptococcus only on the experimental sample is Streptococcus pneumonia. Streptococcus pneumoniae not isolated using standard methods.
The patient had invasive pneumococcal disease as noted by a positive Streptococcus pneumoniae urine antigen result. This sample is most impressive in that the systems and methods described herein allowed isolation of Streptococcus pneumoniae despite the patient being on ceftriaxone for two days at the time of collection. The isolate is sensitive to ceftriaxone according to the sensitivity pattern. S in the Interpretation column of the tables below indicates sensitivity, and R indicates resistance.

MRSA [3] = assay: Antibiotic sensitivity (MIC) of 5/5 sputum culture isolate, Example 4; type: cell-based, Staphylococcus aureus; conditions: 5/5 Sputum cx, Positive for MRSA
Description: (§3) FIG. 5M illustrates the use of systems and methods to isolate MRSA in sputum allowing for faster initiation of anti-MRSA therapy and clinical cure. This patient was intubated for hypoxemia and pneumonia. The patient placed on ceftriaxone and azithromycin. The systems and methods allowed identification of MRSA in the patient's sputum.
as §1

MRSA [4] = assay: Clinical course of intubated patient with MRSA in sputum, Example 4; type: in vivo, human; conditions: one patient, MRSA pneumonia, on ventilator
Description: as §3
FIG. 5N illustrates the yellow colony in the experimental site is obvious. The patient decompensated clinically to the point of near death until proper MRSA antibiotic therapy was initiated. Hypoxemia worsened and oxygen requirements increased prior to MRSA therapy.

[5] = 05 S. aureus, bone incubated 24 hours at 37 degrees Celsius

## CO/N=C(\C(=O)N[C@@H]1C(=O)N2C(C(=O)O)=C(COC(C)=O)CS[C@H]12)c1csc(N)n1 [Cefotaxime]
Klebsiella oxytoca
  Interps: S
  MIC: ≤ 2 µg/mL

## CN[C@H](CC(C)C)C(=O)N[C@H]1C(=O)N[C@@H](CC(N)=O)C(=O)N[C@H]2C(=O)N[C@H]3C(=O)N[C@H](C(=O)N[C@H](C(=O)O)c4cc(O)cc(O)c4-c4cc3ccc4O)[C@H](O)c3ccc(c(Cl)c3)Oc3cc2cc(c3O[C@@H]2O[C@H](CO)[C@@H](O)[C@H](O)[C@H]2O[C@H]2C[C@](C)(N)[C@H](O)[C@H](C)O2)Oc2ccc(cc2Cl)[C@H]1O [Vancomycin]
S. aureus [1]
  Interps: S
  MIC: 2 µg/mL (≈ 1.38 µM)
Staphylococcus aureus
  Interps: S
  MIC: 1 µg/mL (≈ 0.69 µM)
S. aureus [2]; [5]
  Interps: S
  MIC: 1 µg/mL (≈ 0.69 µM)
S. Pneumoniae
  Interpretation: S
  MIC: 0.25 µg/mL (≈ 0.173 µM)
MRSA [3]
  Interps: S
  MIC: 2 µg/mL (≈ 1.38 µM)
MRSA [4]
  clinical outcome of therapy: allowed the patient to come off the ventilator

## Cc1nnc(SCC2=C(C(=O)O)N3C(=O)[C@@H](NC(=O)Cn4cnnn4)[C@H]3SC2)s1 [Cefazolin]
S. aureus [1]
  Interps: R
  MIC: 16 µg/mL (≈ 35.2 µM)
Staphylococcus aureus
  Interps: S
  MIC: ≤ 4 µg/mL
S. aureus [2]; [5]
  Interps: S
  MIC: ≤ 4 µg/mL
Klebsiella oxytoca
  Interps: R
  MIC: 8 µg/mL (≈ 17.6 µM)
MRSA [3]
  Interps: R
  MIC: 8 µg/mL (≈ 17.6 µM)

## CCC[C@@H]1C[C@@H](C(=O)N[C@@H]([C@H]2O[C@H](SC)[C@H](O)[C@@H](O)[C@H]2O)[C@H](C)Cl)N(C)C1 [Clindamycin]
S. aureus [1]
  Interps: R
  MIC: > 4 µg/mL
Staphylococcus aureus
  Interps: S
  MIC: ≤ 0.25 µg/mL
S. aureus [2]; [5]
  Interps: S
  MIC: ≤ 0.25 µg/mL
S. Pneumoniae
  Interpretation: R
  MIC: > 0.5 µg/mL
MRSA [3]
  Interps: R
  MIC: > 4 µg/mL

## CO/N=C(\C(=O)N[C@@H]1C(=O)N2C(C(=O)O)=C(CSc3nc(=O)c(=O)[nH]n3C)CS[C@H]12)c1csc(N)n1 [Ceftriaxone]
Klebsiella oxytoca
  sensitivity of the organism: sensitive
  Interps: S
  MIC: ≤ 1 µg/mL
S. Pneumoniae
  sensitivity of the isolate according to the sensitivity pattern: sensitive
  Interpretation: S
  MIC: ≤ 0.25 µg/mL

## NCC[C@H](O)C(=O)N[C@@H]1C[C@H](N)[C@@H](O[C@H]2O[C@H](CN)[C@@H](O)[C@H](O)[C@H]2O)[C@H](O)[C@H]1O[C@H]1O[C@H](CO)[C@@H](O)[C@H](N)[C@H]1O [Amikacin]
Klebsiella oxytoca
  Interps: S
  MIC: ≤ 16 µg/mL

## Gentamicin
S. aureus [1]
  Interps: S
  MIC: ≤ 1 µg/mL
Staphylococcus aureus
  Interps: S
  MIC: ≤ 1 µg/mL
S. aureus [2]; [5]
  Interps: S
  MIC: ≤ 1 µg/mL
Klebsiella oxytoca
  Interps: S
  MIC: ≤ 1 µg/mL
MRSA [3]
  Interps: S
  MIC: ≤ 1 µg/mL

## CC[C@H]1OC(=O)[C@H](C)[C@@H](O[C@H]2C[C@@](C)(OC)[C@@H](O)[C@H](C)O2)[C@H](C)[C@@H](O[C@@H]2O[C@H](C)C[C@H](N(C)C)[C@H]2O)[C@](C)(O)C[C@@H](C)CN(C)[C@H](C)[C@@H](O)[C@]1(C)O [azithromycin]
S. Pneumoniae; inferred from macrolide resistance
  macrolide resistance of the isolate: resistant

## CC1(C)S[C@@H]2[C@H](NC(=O)[C@H](N)c3ccccc3)C(=O)N2[C@H]1C(=O)O [Ampicillin]
Klebsiella oxytoca
  Interps: R
  MIC: > 16 µg/mL

## C[C@@H](O)[C@H]1C(=O)N2C(C(=O)O)=C(SCCN=CN)C[C@H]12 [Imipenem]
Klebsiella oxytoca
  Interps: S
  MIC: ≤ 0.5 µg/mL

## CN(C)[C@@H]1C(O)=C(C(N)=O)C(=O)[C@@]2(O)C(O)=C3C(=O)c4c(O)cccc4[C@@](C)(O)[C@H]3C[C@@H]12 [Tetracycline]
S. aureus [1]
  Interps: S
  MIC: ≤ 1 µg/mL
Staphylococcus aureus
  Interps: R
S. aureus [2]; [5]
  Interps: R
Klebsiella oxytoca
  Interps: S
  MIC: ≤ 4 µg/mL
MRSA [3]
  Interps: S
  MIC: ≤ 1 µg/mL

## CO[C@H]1/C=C/O[C@@]2(C)Oc3c(C)c(O)c4c(O)c(c(/C=N/N5CCN(C)CC5)c(O)c4c3C2=O)NC(=O)/C(C)=C\C=C\[C@H](C)[C@H](O)[C@@H](C)[C@@H](O)[C@@H](C)[C@H](OC(C)=O)[C@@H]1C [Rifampin]
S. aureus [1]
  Interps: S
  MIC: ≤ 1 µg/mL
S. aureus [2]; [5]
  MIC: ≤ 1 µg/mL
S. aureus [2]; 24 h
  Interps: S
MRSA [3]
  Interps: S
  MIC: ≤ 1 µg/mL

## CO[C@@]1(NC(=O)Cc2cccs2)C(=O)N2C(C(=O)O)=C(COC(N)=O)CS[C@@H]21 [Cefoxitin]
Klebsiella oxytoca
  Interps: S
  MIC: ≤ 8 µg/mL

## Penicillin
S. Pneumoniae
  Interpretation: S
  MIC: ≤ 0.03 µg/mL

## Cc1onc(-c2ccccc2)c1C(=O)N[C@@H]1C(=O)N2[C@@H]1SC(C)(C)[C@@H]2C(=O)O [Oxacillin]
S. aureus [1]
  Interps: R
  MIC: > 2 µg/mL
Staphylococcus aureus
  Interps: S
  MIC: ≤ 0.25 µg/mL
S. aureus [2]; [5]
  MIC: ≤ 0.25 µg/mL
S. aureus [2]; 24 h
  Interps: S
MRSA [3]
  Interps: R
  MIC: > 2 µg/mL

## NC[C@H]1O[C@H](O[C@H]2[C@H](O)[C@@H](O[C@H]3O[C@H](CO)[C@@H](O)[C@H](N)[C@H]3O)[C@H](N)C[C@@H]2N)[C@H](N)C[C@@H]1O [Tobramycin]
Klebsiella oxytoca
  Interps: S
  MIC: ≤ 1 µg/mL

## CC(=O)NC[C@H]1CN(c2ccc(N3CCOCC3)c(F)c2)C(=O)O1 [Linezolid]
S. aureus [1]
  Interps: S
  MIC: 2 µg/mL (≈ 5.93 µM)
Staphylococcus aureus
  Interps: S
  MIC: 2 µg/mL (≈ 5.93 µM)
S. aureus [2]; [5]
  MIC: 2 µg/mL (≈ 5.93 µM)
S. aureus [2]; 24 h
  Interps: S
MRSA [3]
  Interps: S
  MIC: 2 µg/mL (≈ 5.93 µM)
MRSA [4]
  clinical outcome of therapy: allowed the patient to come off the ventilator

## CCCCCCCCCC(=O)N[C@@H](Cc1c[nH]c2ccccc12)C(=O)N[C@H](CC(N)=O)C(=O)N[C@@H](CC(=O)O)C(=O)N[C@@H]1C(=O)NCC(=O)N[C@@H](CCCN)C(=O)N[C@@H](CC(=O)O)C(=O)N[C@H](C)C(=O)N[C@@H](CC(=O)O)C(=O)NCC(=O)N[C@H](CO)C(=O)N[C@@H]([C@H](C)CC(=O)O)C(=O)N[C@@H](CC(=O)c2ccccc2N)C(=O)O[C@@H]1C [Daptomycin]
Staphylococcus aureus
  Interps: S
  MIC: 0.5 µg/mL (≈ 0.309 µM)
S. aureus [2]; [5]
  Interps: S
  MIC: 0.5 µg/mL (≈ 0.309 µM)

## C[C@H]1COc2c(N3CCN(C)CC3)c(F)cc3c(=O)c(C(=O)O)cn1c23 [Levofloxacin]
Klebsiella oxytoca
  Interps: S
  MIC: ≤ 0.25 µg/mL
S. Pneumoniae
  Interpretation: S
  MIC: 1 µg/mL (≈ 2.77 µM)

## CC[C@H]1OC(=O)[C@H](C)[C@@H](O[C@H]2C[C@@](C)(OC)[C@@H](O)[C@H](C)O2)[C@H](C)[C@@H](O[C@@H]2O[C@H](C)C[C@H](N(C)C)[C@H]2O)[C@](C)(O)C[C@@H](C)C(=O)[C@H](C)[C@@H](O)[C@]1(C)O [Erythromycin]
S. Pneumoniae
  Interpretation: R
  MIC: > 0.5 µg/mL

## O=C(O)c1cn(C2CC2)c2cc(N3CCNCC3)c(F)cc2c1=O [Ciprofloxacin]
Klebsiella oxytoca
  Interps: S
  MIC: ≤ 1 µg/mL

## CO/N=C(\C(=O)N[C@@H]1C(=O)N2C(C(=O)[O-])=C(C[N+]3(C)CCCC3)CS[C@H]12)c1csc(N)n1 [Cefepime]
Klebsiella oxytoca
  Interps: S
  MIC: ≤ 2 µg/mL

## C[C@@H](O)[C@H]1C(=O)N2C(C(=O)O)=C(S[C@@H]3CN[C@H](C(=O)N(C)C)C3)[C@H](C)[C@H]12 [Meropenem]
Klebsiella oxytoca
  Interps: S
  MIC: ≤ 1 µg/mL
